Patent US4486411A, “Beta-lactamase inhibiting 6-beta-sulfonyloxypenicillanic acid derivatives” (Pfizer Inc., priority 1981, dated 1984)
Values joined by “and” are separate entries in the source; they are usually repeats but may differ in a detail not shown here. Equal values may be shown once. Read-outs that look alike come from different tables or passages of the source.

Experiments:
Enterobacter cloacae = test: MIC, brain heart infusion agar dilution; type: cell-based; conditions: for MIC with Ampicillin / Response with Ampicillin: 1:1 mixture with ampicillin; for MIC: Enterobacter cloacae, 18 h, alone, Table II gives two separate tests
Method: (§1) The procedure which is followed is the one recommended by the International Collaborative Study on Antibiotic Sensitivity Testing [Ericcson and Sherris, Acta. Pathologica et Microbiologia Scandinav, Supp. 217, Sections A and B: 64-68 (1971)], and employs brain heart infusion (BHI) agar and the inocula replicating device. Overnight growth tubes are diluted 100 fold for use as the standard inoculum (20,000-10,000 cells in approximately 0.002 ml. are placed on the agar surface; 20 ml. of BHI agar/dish). Twelve 2 fold dilutions of the test compound are employed, with initial concentration of the test drug being 200 mcg./ml. Single colonies are disregarded when reading plates after 18 hrs. at 37° C. The susceptibility (MIC) of the test organism is accepted as the lowest concentration of compound capable of producing complete inhibition of growth as judged by the naked eye. The manner in which the said compounds of the formula I increase the effectiveness of a beta-lactam antibiotic can be appreciated by reference to experiments in which the MIC of a given antibiotic alone, and a compound of the formula I alone, are measured. These MIC's are then compared with the MIC values obtained with a combination of the given antibiotic and the compound of the formula I wherein R^1 is hydrogen. […] The MIC values of combinations are measured using the method described by Barry and Sabath in "Manual of Clinical Microbiology", edited by Lenette, Spaulding and Truant, 2nd Edition, 1974, American Society for Microbiology.
(§2) Results of experiments illustrating that compounds of the formula II enhance the effectiveness of various beta-lactam antibiotics are reported in Tables I and II. […] It is obvious that the combination of compounds of the formula II with beta-lactam antibiotics will show synergistic activity against other bacterial strains, including some freshly isolated in the clinics. Determination of this activity is a matter of routine application of this type of testing.

Escherichia coli 129* = test: MIC, brain heart infusion agar dilution; type: cell-based; conditions: for MIC with Ampicillin: 1:1 mixture with ampicillin; for MIC: Escherichia coli, 18 h, read-out: MIC Alone
Method: as §1, §2

Escherichia coli 2* = test: MIC, brain heart infusion agar dilution; type: cell-based; conditions: for MIC with Cefazolin: 1:1 mixture with cefazolin; for MIC: Escherichia coli, 18 h, read-out: MIC Alone
Method: as §1, §2

Escherichia coli 266 = test: MIC, brain heart infusion agar dilution; type: cell-based; conditions: for MIC: Escherichia coli, 266, 18 h, alone, Table II gives two separate tests
Method: as §1, §2

Klebsiella pneumonia = test: MIC, brain heart infusion agar dilution; type: cell-based; conditions: for MIC with Ampicillin / Response with Ampicillin: 1:1 mixture with ampicillin; for MIC with Cefazolin / Response with Cefazolin: 1:1 mixture with cefazolin; for MIC: Klebsiella pneumoniae, 18 h, alone, Table II gives two separate tests
Method: as §1, §2

Proteus morgani = test: MIC, brain heart infusion agar dilution; type: cell-based; conditions: for MIC with Ampicillin: 1:1 mixture with ampicillin; for MIC with Cefazolin / Response with Cefazolin: 1:1 mixture with cefazolin; for MIC: 18 h, alone, Table II gives two separate tests
Method: as §1, §2

Pseudomonas aeruginosa = test: MIC, brain heart infusion agar dilution; type: cell-based; conditions: for MIC with Ampicillin: 1:1 mixture with ampicillin; for MIC with Cefazolin: 1:1 mixture with cefazolin; for MIC: Pseudomonas aeruginosa, 18 h, alone, Table II gives two separate tests
Method: as §1, §2

Serratia marcescens = test: MIC, brain heart infusion agar dilution; type: cell-based; conditions: for MIC: Serratia marcescens, 18 h, alone, Table II gives two separate tests
Method: as §1, §2

[1] = test system: Staphylococcus aureus 400*; test: MIC, brain heart infusion agar dilution; type: cell-based; conditions: resistant variant
Method: as §1, §2

Staphylococcus aureus 5 = test: MIC, brain heart infusion agar dilution; type: cell-based; conditions: for MIC with Ampicillin: 1:1 mixture with ampicillin; for MIC: 18 hrs. at 37° C., Table II gives two separate tests
Method: as §1, §2

[2] = molecular target: Enterobacter cloacae 67B009 beta-lactamase (Enterobacter cloacae, UniProt P05364); test: Inhibition of cell free beta-lactamase (beta-lactam hydrolysis); type: biochemical; conditions: pH 6.5, 37° C.; for inhibition at 66 µM: inhibitor 66 μM; for inhibition at 16.5 µM: inhibitor 16.5 μM
Enterobacter cloacae 67B009 beta-lactamase, sequence (P05364 21-381): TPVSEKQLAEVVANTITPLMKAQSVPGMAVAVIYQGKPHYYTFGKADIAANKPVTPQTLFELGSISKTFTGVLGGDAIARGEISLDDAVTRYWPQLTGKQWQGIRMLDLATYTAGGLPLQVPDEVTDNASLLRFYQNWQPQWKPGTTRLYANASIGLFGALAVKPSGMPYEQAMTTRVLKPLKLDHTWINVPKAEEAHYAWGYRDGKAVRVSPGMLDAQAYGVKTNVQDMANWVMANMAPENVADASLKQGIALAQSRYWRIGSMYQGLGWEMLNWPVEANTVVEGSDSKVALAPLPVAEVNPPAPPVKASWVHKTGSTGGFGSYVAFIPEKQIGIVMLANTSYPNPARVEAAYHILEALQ
Method: (§3) The compounds of the present invention are also evaluated in vitro by their ability to inhibit the hydrolysis of certain beta-lactam antibiotics by beta-lactamase enzymes. The hydrolysis of ampicillin and penicillin G was determined by the microiodometric method of Novick [Biochem. J. 83, 236 (1962)].
(§4) Cephaloridine hydrolysis was measured by following the decrease in ultraviolet absorbance at 255 nm [O'Callaghan et al., Antimicrob. Agents Chemother. 1968, pp. 57-63 (1969)]. Conditions for both assays were idential: 0.5 M potassium phosphate, pH 6.5 and 37° C. Reactions were initiated by the addition of the cell-free beta-lactamase, except in the case of preincubation experiments in which the inhibitor and enzyme were incubated together in the assay mixture for 10 minutes before initiation of the reaction by addition of substrate. With the cell-free extracts of Staphylococcus aureus, Escherichia coli, Klebsiella pneumoniae and Pseudomonas aeruginosa, the substrate was ampicillin at 33 micro M (13 microg./ml.). Typical specific activities of the beta-lactamase preparations were, respectively, 6,019, 88,970, 260 and 76 micromol/hr. per mg. of protein.
(§5) Cell-free extracts were prepared by sonic treatment (using three 30-s bursts at 4° C. except for S. aureus, which was broken with a French press) of cultures grown in brain heart infusion on a rotary shaker incubator. For the S. aureus, P. aeruginosa, and E. cloacae strains, de novo synthesis of beta-lactamase was induced by growing a log-phase culture in the presence of a sublethal concentration of penicillin G at 100, 1,000, and 300 microg./ml, respectively, for 2.5 hr.

[3] = test system: Escherichia coli 51A129 beta-lactamase; test: as above; type: biochemical; conditions: Ampicillin 33 μM, pH 6.5, 37° C.
Method: as §3, §4, §5

[4] = test system: Klebsiella pneumoniae 53A129 beta-lactamase; test: as above; type: biochemical; conditions: Ampicillin 33 μM, pH 6.5, 37° C.
Method: as §3, §4, §5

[5] = molecular target: T1, Staphylococcus aureus 01A400 beta-lactamase (Staphylococcus aureus, UniProt P00807); test: as above; type: biochemical; conditions: pH 6.5, 37° C.; for % Inhibition Beta-Lactam Hydrolysis: listed as R = C6 H5, n = 0
T1 construct: Cell-free extracts were prepared by sonic treatment; endogenous in cells; host or cells: Staphylococcus aureus 01A400, penicillin G-induced culture, cell-free extract (French press)
T1 sequence (P00807 25-281): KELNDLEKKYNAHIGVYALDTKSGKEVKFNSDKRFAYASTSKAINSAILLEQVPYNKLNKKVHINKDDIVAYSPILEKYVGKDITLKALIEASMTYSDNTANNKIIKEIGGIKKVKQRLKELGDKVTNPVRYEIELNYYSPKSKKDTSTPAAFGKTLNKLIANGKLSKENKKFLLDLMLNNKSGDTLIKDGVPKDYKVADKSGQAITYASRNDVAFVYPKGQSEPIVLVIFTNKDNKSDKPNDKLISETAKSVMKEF
Method: as §3, §4, §5

[6] = molecular target: T2, Pseudomonas aeruginosa 52A104 beta-lactamase (Pseudomonas aeruginosa, UniProt P24735); test: as above; type: biochemical; conditions: pH 6.5, 37° C.
T2 construct: cell-free sonicate of penicillin G-induced culture
T2 sequence (P24735 27-397): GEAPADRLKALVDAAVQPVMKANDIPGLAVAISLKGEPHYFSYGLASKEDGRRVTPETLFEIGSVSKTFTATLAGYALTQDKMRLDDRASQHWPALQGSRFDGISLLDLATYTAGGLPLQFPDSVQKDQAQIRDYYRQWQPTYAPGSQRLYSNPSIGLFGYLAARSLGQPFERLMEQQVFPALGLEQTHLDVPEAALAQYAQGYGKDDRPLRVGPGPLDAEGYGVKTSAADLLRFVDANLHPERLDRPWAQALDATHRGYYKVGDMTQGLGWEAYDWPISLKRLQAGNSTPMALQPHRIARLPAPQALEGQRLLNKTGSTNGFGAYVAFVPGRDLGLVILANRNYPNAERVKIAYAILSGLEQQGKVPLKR
Method: as §3, §4, §5

[7] = 1:1 mixture with cefazolin, resistant variant
[8] = 1:1 mixture with ampicillin, resistant variant
[9] = Staphylococcus aureus, 5, alone, read-out: MIC Alone
[10] = pH 6.5, Ampicillin 33 μM, inhibitor 66 μM

CC1(C)S[C@@H]2[C@H](OS(C)(=O)=O)C(=O)N2[C@H]1C(=O)O [Sodium Methanesulfonyloxypenicillanate, Sodium 6-beta-(Methanesulfonyloxy)penicillanate]
MIC with Ampicillin (Enterobacter cloacae): 100 µg/mL | Response with Ampicillin (Enterobacter cloacae): Synergy | MIC with Cefazolin (Enterobacter cloacae; 1:1 mixture with cefazolin): > 100 µg/mL | MIC (Enterobacter cloacae): > 200 µg/mL | MIC with Ampicillin (Escherichia coli 129*; resistant variant): > 100 µg/mL | MIC with Cefazolin (Escherichia coli 129*; [7]): 50 µg/mL | Response with Cefazolin (Escherichia coli 129*; [7]): Antagonism | MIC (Escherichia coli 129*): > 200 µg/mL | MIC with Ampicillin (Escherichia coli 2*; [8]): 100 µg/mL | Response with Ampicillin (Escherichia coli 2*; [8]): Additive | MIC with Cefazolin (Escherichia coli 2*; resistant variant): 6.25 µg/mL | MIC (Escherichia coli 2*): > 200 µg/mL | MIC with Ampicillin (Escherichia coli 266; 1:1 mixture with ampicillin): 3.12 µg/mL | Response with Ampicillin (Escherichia coli 266; 1:1 mixture with ampicillin): Antagonism | MIC (Escherichia coli 266): > 200 µg/mL | MIC with Ampicillin (Klebsiella pneumonia): 100 µg/mL | Response with Ampicillin (Klebsiella pneumonia): Antagonism | MIC with Cefazolin (Klebsiella pneumonia): 1.56 µg/mL | Response with Cefazolin (Klebsiella pneumonia): No effect | MIC (Klebsiella pneumonia): > 200 µg/mL | MIC with Ampicillin (Proteus morgani): 1.56 µg/mL | MIC with Cefazolin (Proteus morgani): 25 µg/mL | Response with Cefazolin (Proteus morgani): Synergy | MIC (Proteus morgani): > 200 µg/mL | MIC with Ampicillin (Pseudomonas aeruginosa): > 100 µg/mL | MIC with Cefazolin (Pseudomonas aeruginosa): > 100 µg/mL | MIC (Pseudomonas aeruginosa): > 200 µg/mL | MIC with Ampicillin (Serratia marcescens; 1:1 mixture with ampicillin): 25 µg/mL | Response with Ampicillin (Serratia marcescens; 1:1 mixture with ampicillin): Antagonism | MIC with Cefazolin (Serratia marcescens; 1:1 mixture with cefazolin): 100 µg/mL | Response with Cefazolin (Serratia marcescens; 1:1 mixture with cefazolin): Synergy | MIC (Serratia marcescens): > 200 µg/mL | MIC with Ampicillin ([1]; 1:1 mixture with ampicillin): 3.12 µg/mL | Response with Ampicillin ([1]; 1:1 mixture with ampicillin): Additive | MIC with Cefazolin ([1]; 1:1 mixture with cefazolin): ≥ 0.2 µg/mL | Response with Cefazolin ([1]; 1:1 mixture with cefazolin): Synergy | MIC ([1]; Staphylococcus aureus, 18 h, read-out: MIC Alone, alone, Table II gives two separate tests): 6.25 µg/mL | MIC with Ampicillin (Staphylococcus aureus 5): ≤ 0.2 µg/mL | MIC (Staphylococcus aureus 5; [9]): 12.5 µg/mL | inhibition at 66 µM ([2]; pH 6.5, Penicillin G 33 μM): 66.7% | % Inhibition Beta-Lactam Hydrolysis ([3]; inhibitor 66 μM): 4.4% | % Inhibition Beta-Lactam Hydrolysis ([4]; inhibitor 16.5 μM): 0% | inhibition at 16.5 µM ([5]; pH 6.5, Ampicillin 33 μM, inhibitor 16.5 μM): 100% | inhibition at 66 µM [5, 10]: 100%

CC1(C)S[C@@H]2[C@H](OS(=O)(=O)Cc3ccccc3)C(=O)N2[C@H]1C(=O)O [Sodium 6-Beta-(Alpha-Toluenesulfonyloxy)penicillanate]
MIC with Ampicillin (Enterobacter cloacae): 100 µg/mL | Response with Ampicillin (Enterobacter cloacae): Synergy | MIC with Cefazolin (Enterobacter cloacae; 1:1 mixture with cefazolin): 100 µg/mL | Response with Cefazolin (Enterobacter cloacae; 1:1 mixture with cefazolin): Synergy | MIC (Enterobacter cloacae): > 200 µg/mL | MIC with Ampicillin (Escherichia coli 129*; resistant variant): > 100 µg/mL | MIC with Cefazolin (Escherichia coli 129*; [7]): 100 µg/mL and 50 µg/mL | MIC (Escherichia coli 129*): > 200 µg/mL | MIC with Ampicillin (Escherichia coli 2*; [8]): > 100 µg/mL | MIC with Cefazolin (Escherichia coli 2*; resistant variant): 12.5 µg/mL and 6.25 µg/mL | MIC (Escherichia coli 2*): > 200 µg/mL | MIC with Ampicillin (Escherichia coli 266; 1:1 mixture with ampicillin): 3.12 µg/mL and 1.56 µg/mL | MIC (Escherichia coli 266): > 200 µg/mL | MIC with Ampicillin (Klebsiella pneumonia): > 100 µg/mL | Response with Ampicillin (Klebsiella pneumonia): Antagonism | MIC with Cefazolin (Klebsiella pneumonia): 0.78 µg/mL | Response with Cefazolin (Klebsiella pneumonia): Additive | MIC (Klebsiella pneumonia): > 200 µg/mL | MIC with Ampicillin (Proteus morgani): 3.12 µg/mL | MIC with Cefazolin (Proteus morgani): 50 µg/mL | Response with Cefazolin (Proteus morgani): Synergy | MIC (Proteus morgani): > 200 µg/mL | MIC with Ampicillin (Pseudomonas aeruginosa): > 100 µg/mL | MIC with Cefazolin (Pseudomonas aeruginosa): > 100 µg/mL | MIC (Pseudomonas aeruginosa): > 200 µg/mL | MIC with Cefazolin (Serratia marcescens; 1:1 mixture with cefazolin): > 100 µg/mL | MIC (Serratia marcescens): > 200 µg/mL | Response with Ampicillin ([1]; 1:1 mixture with ampicillin): Additive | MIC with Ampicillin (Staphylococcus aureus 5): ≤ 0.2 µg/mL | MIC (Staphylococcus aureus 5; Staphylococcus aureus, 5, 18 h, read-out: MIC Alone, alone): 6.25 µg/mL | MIC (Staphylococcus aureus 5; [9]): 100 µg/mL | inhibition at 16.5 µM ([2]; pH 6.5, Cephalexin 33 μM): 100% | inhibition at 16.5 µM ([2]; pH 6.5, Cephaloridine 4 μM): 100% | inhibition at 4 µM ([2]; pH 6.5, Cephaloridine 33 μM, inhibitor 4 μM): 93.7% | inhibition at 16.5 µM ([2]; pH 6.5, Cephaloridine 33 μM): 98.3% | inhibition at 16.5 µM ([2]; pH 6.5, Penicillin G 33 μM): 96% | inhibition at 66 µM ([2]; pH 6.5, Penicillin G 33 μM): 96% | % Inhibition Beta-Lactam Hydrolysis ([3]; inhibitor 16.5 μM): 14.0% | % Inhibition Beta-Lactam Hydrolysis ([3]; inhibitor 66 μM): 15.8% | % Inhibition Beta-Lactam Hydrolysis ([4]; inhibitor 16.5 μM): 3.0% | % Inhibition Beta-Lactam Hydrolysis ([4]; inhibitor 66 μM): 0% | inhibition at 16.5 µM ([6]; Cephaloridine 16.5 μM, inhibitor 16.5 μM): 92.6% | inhibition at 66 µM ([6]; Penicillin G 33 μM, inhibitor 66 μM): 100% | % Inhibition Beta-Lactam Hydrolysis ([5]; Ampicillin 33 μM, inhibitor 16.5 μM): 40.3% and 78% and 63.3% | % Inhibition Beta-Lactam Hydrolysis ([5]; Ampicillin 33 μM, inhibitor 66 μM): 91.4% and 91% | inhibition at 66 µM [5, 10]: 85% | inhibition at 66 µM ([5]; pH 6.5, Preincubation experiment (10 minutes), Ampicillin 33 μM, inhibitor 66 μM): 87.2%

CC1(C)[C@H](C(=O)O)N2C(=O)[C@@H](OS(=O)(=O)Cc3ccccc3)[C@H]2S1(=O)=O [R = C6 H5, n = 2, Sodium 6-beta-(alpha-Toluene-sulfonyloxy)penicillanate Sulfone]
inhibition at 66 µM ([2]; pH 6.5, Penicillin G 33 μM): 0% | inhibition at 66 µM [5, 10]: 36.2%
